According to publication PMC8811960, “A Novel 2-Carbon-Linked Dimeric Artemisinin With Potent Antileukemic Activity and Favorable Pharmacology” (Frontiers in Oncology, 2022):
Where two headings read alike, the source gives them in different places.

Experiments:
HL60 = experiment: alamarBlue growth inhibition, HL60; type: cell-based; conditions: Homo sapiens, HL-60, HL60, 48h, mean of 2 independent assays ± SD
Procedure: (§1) Cytotoxicity was assessed using alamarBlue assays (Life Technologies, Grand Island, NY) following manufacturer’s guidelines. Cell death was verified by Annexin V/7-aminoactinomycin D (7AAD) staining (BioLegend, San Diego, CA) per manufacturer’s guidelines.

U937 = experiment: alamarBlue growth inhibition, U937; type: cell-based; conditions: Homo sapiens, U-937, U937, 48h, mean of 2 independent assays ± SD
Procedure: as §1

10 human AML cell lines = experiment: alamarBlue growth inhibition, panel of 10 human AML cell lines; type: cell-based
Procedure: as §1
Cell lines with adverse risk cytogenetic and molecular features, e.g. MLL rearrangements (ML2, MOLM14, MV4;11, THP1), FLT3-ITD (MOLM14, MV4;11), TP53 mutations (KG1a, ML2, THP1, U937), and NRAS/KRAS mutations (ML2, THP1), were among those exquisitely sensitive to ART631, with IC50s < 50 nM. The K562 cell line was the only exception, as it was resistant to all 3 of these ARTs. Based on this in vitro activity data combined with the drug stability data described below, ART631 was prioritized over ART576 for further in vitro and in vivo antileukemic efficacy experiments here ( Table 2 ).

[1] = Stability in mouse plasma (EDTA); type: in vitro ADME; conditions: 10 µM, 37°C, 1h
Procedure: The metabolic stability of ART631 was assessed in human and mouse plasma and liver microsomes (LM). For phase I microsomal stability assays, analogs (10 µM in <1% acetonitrile) were incubated in PBS containing liver microsomes, with or without cofactors ([22]). Microsomal controls (without cofactors) were used to determine non-enzymatic degradation. All experiments were incubated at 37°C for 1h and performed in duplicate. Reactions were stopped with acetonitrile and analyzed as described below.
ART631 was extracted from 25 µL plasma or microsomal solutions with 100 µL acetonitrile containing artemisinin (i.e. the natural product) as internal standard. […] Mobile phase A was ammonium acetate (2mM) containing 0.1% formic acid, and mobile phase B was acetonitrile containing 0.1% formic acid. The gradient started with mobile phase B and was held at 40% for 0.5 minutes with a flow rate of 0.4 mL/min, then increased to 100% over 1.5 minutes and held for 2.0 minutes, and finally returned back to 40% mobile phase B and allowed to equilibrate for 2.0 minutes. An AB Sciex 5500 triple quadrupole mass spectrometer operated in positive electrospray ionization mode was used for the detection of ART631. For stability studies, the ratio of ART631 to the internal standard, artemisinin, was assessed. […]

[2] = Plasma pharmacokinetics after oral dosing in NRG mice; type: in vivo; conditions: mouse; for Vd/F: read-out: Vz/F
Procedure: Mice were dosed orally with ART631 at empirically determined maximally tolerated doses (MTDs) of 75 mg/kg ART631 as a single dose alone or 15 mg/kg as a multiple dose regimen (once daily x5), either alone or in combination with SOR (30 mg/kg/d) and VEN (150 mg/kg/d), for side-by-side comparison to the ART838, SOR and VEN combination evaluated previously ([20]). ART631, SOR, and VEN were mixed in vehicle and given as a single administration. Mice (n = 3/time point) were euthanized at 0.5, 1, 1.5, 2, 3, 4, 6, 8 and 12 h after dosing. ART631 was quantified in plasma as described below. Pharmacokinetic parameters were calculated from mean concentration-time data using non-compartmental methods in Phoenix WinNonlin version 8.3 (Certara, Princeton, NJ). The maximum plasma concentration (Cmax) and time to Cmax (Tmax) were the observed values. The AUClast was calculated using the log-linear trapezoidal method. AUC was extrapolated to infinity (AUCINF) by dividing the last quantifiable concentration by the terminal disposition rate constant (λz). The λz was determined from at least 3 points on the slope of the terminal phase of the concentration-time profile. The terminal half-life (T1/2) was determined by dividing 0.693 by λz. Apparent clearance (Cl/F) was calculated by dividing the dose administered by AUCINF. Apparent volume of distribution (V/F) was calculated by dividing Cl/F by λz. If the percent AUC extrapolated was >20% or the r^2 of λz was <0.85, the AUCINF, Cl/F, T1/2 and V/F were not reported.
The Method of Bailer was used to estimate the variance of AUC given the calculated variance of the mean concentration at each time point ([23]). A pairwise comparison utilizing Z test was used to determine whether there was a significant difference between ART631 exposures as expressed by AUClast ([24]). In all cases, p < 0.05 was considered statistically significant.
ART631 was extracted from 25 µL plasma or microsomal solutions with 100 µL acetonitrile containing artemisinin (i.e. the natural product) as internal standard. […] Mobile phase A was ammonium acetate (2mM) containing 0.1% formic acid, and mobile phase B was acetonitrile containing 0.1% formic acid. The gradient started with mobile phase B and was held at 40% for 0.5 minutes with a flow rate of 0.4 mL/min, then increased to 100% over 1.5 minutes and held for 2.0 minutes, and finally returned back to 40% mobile phase B and allowed to equilibrate for 2.0 minutes. An AB Sciex 5500 triple quadrupole mass spectrometer operated in positive electrospray ionization mode was used for the detection of ART631. For stability studies, the ratio of ART631 to the internal standard, artemisinin, was assessed. Calibration curves for ART631 were computed using the ratio of the peak area to that of the internal standard by using a quadratic equation with a 1/x^2 weighting function over the range of 8-1585 nM with dilutions of up to 1:10 (v/v).

MOLM14 cells = experiment: Total cellular ROS (CM-H2DCFDA flow cytometry); type: cell-based, human; conditions: MOLM14, 200 nM, 18h
Procedure: […] Cells were then treated with ART631 (200 nM) or DMSO control for 18h, with subsequent analysis by flow cytometry. Western blotting and quantitative reverse transcription PCR (qRT-PCR) to assess for molecular markers of ROS-mediated apoptosis were performed as previously described ([20]).
Figure 4 ART631 elevated ROS and CHOP levels and reduced MCL1 expression in MOLM14 AML cells. […] They were then analyzed by flow cytometry. Graph represents %CM-H2DCFDA fluorescence compared to vehicle (DMSO) control treated cells. Error bars represent SD from 3 independent experiments. (B) MOLM14 AML cells were treated for 18h with vehicle, AS (10 uM), ART838 (200 nM), ART631 (200 nM), cytarabine (AraC; 150 nM), or SOR (5 uM). Protein was isolated and western blotted for MCL1, BCL2, CHOP, and β-actin. (C) MOLM14 cells were treated as in (B) for 18h, total RNA isolated, cDNA synthesized, and SYBR Green qRT-PCR performed in triplicates. Ct values were normalized to housekeeping gene GAPDH and fold change shown relative to vehicle (DMSO) control. Error bars represent SD from 3 independent experiments done in triplicate.

[3] = 15 mg/kg/day, NRG mice plasma, 15 mg/kg/d PO qd x 5 alone, after 5th dose
[4] = NRG mice plasma, 15 mg/kg/d PO qd x 5 in SAV (SOR 30 mg/kg/d, VEN 150 mg/kg/d), after 5th dose
[5] = NRG mice plasma, 75 mg/kg PO x 1

With C=CCO/N=C(/C[C@H]1O[C@@H]2O[C@@]3(C)CC[C@H]4[C@H](C)CC[C@@H]([C@H]1C)[C@@]24OO3)[C@H]1O[C@@H]2O[C@@]3(C)CC[C@H]4[C@H](C)CC[C@@H]([C@H]1C)[C@@]24OO3 [ART631] the IC50 (HL60) was 41 ± 9 nM, the IC50 (U937) was 20 ± 5 nM and the IC50 (10 human AML cell lines; Homo sapiens, ML2, MOLM14, MV4;11, THP1, KG1a, U937, read-out: IC50s in cell lines with adverse risk cytogenetic and molecular features) was under 50 nM. For the same compound, the “number of human AML cell lines whose growth was inhibited” value (10 human AML cell lines; of 10 human AML cell lines tested) was 9, the IC50 (10 human AML cell lines; range over the inhibited cell lines of 10 human AML cell lines, read-out: IC50 range) was 20 to 45 nM and the “percentage remaining, Plasma (EDTA) Mouse” value [1] was 62%. It also gave a half-life ([2]; NRG, plasma, oral, ART631 alone, single and multiple dose regimens, read-out: half-life) of 1.1 to 1.7 h, an AUC(0-t) [2, 3] of 2.74 µM·h and a CL/F [2, 3] of 145 mL/min/kg. The Cmax [2, 3] was 935 nM, the Tmax [2, 3] was 2 h and the half-life ([2]; 15 mg/kg/day, NRG mice plasma, 15 mg/kg/d PO qd x 5 alone, after 5th dose, read-out: T1/2 (converted)) was 1.7 h. It also gave a Vd/F [2, 3] of 21.5 L/kg, an AUC(0-t) [2, 4] of 3.73 µM·h and a CL/F [2, 4] of 102 mL/min/kg. The Cmax [2, 4] was 719 nM, the Tmax [2, 4] was 2 h and the half-life ([2]; NRG mice plasma, 15 mg/kg/d PO qd x 5 in SAV (SOR 30 mg/kg/d, VEN 150 mg/kg/d), after 5th dose, read-out: T1/2 (converted)) was 2.4 h. For the same compound, the Vd/F [2, 4] was 21.3 L/kg, the AUC(0-t) [2, 5] was 22.9 µM·h and the CL/F [2, 5] was 86.7 mL/min/kg. For the same compound, the Cmax [2, 5] was 13100 nM, the Tmax [2, 5] was 1.5 h and the half-life ([2]; NRG mice plasma, 75 mg/kg PO x 1, read-out: T1/2 (converted)) was 1.1 h. For the same compound, the Vd/F [2, 5] was 8.4 L/kg and the “total cellular ROS levels” value (MOLM14 cells) was “substantially increased”.
